Experimental data taken from article PMC6130489, “Caffeic acid methyl and ethyl esters exert potential antidiabetic effects on glucose and lipid metabolism in cultured murine insulin-sensitive cells through mechanisms implicating activation of AMPK” (Pharmaceutical Biology, 2017).

Legend:
C2C12 cells = tested on: C2C12 cells; set-up: method as in Eid et al. [2010]; settings: cultured C2C12 cells; ref Eid et al. [2010]; cited from earlier work
C/EBP-β = experiment: Western immunoblot C/EBP-β in 3T3-L1 adipocytes; type: cell-based, mouse; settings: 100 μM (Figure 4 legend)
Experimental: Insulin (100 nM) or aminoimidazole carboxamide ribonucleotide (AICAR; 1 mM) were added to some vehicle-treated wells 30 min prior to the end of the treatment and served as the positives controls. Protein content was assayed by the bicinchoninic acid method (Thermo Scientific Pierce Protein Research, Rockford, IL) standardized to bovine serum albumin. Western immunoblotting was performed as described elsewhere (Eid et al. [2010]). Membranes were incubated overnight with phospho-AMPK, phospho-Akt, GLUT4, GLUT1 and β-actin antibodies (1:1000 dilution, Cell Signalling Technology, Danvers, MA), or with PPAR-γ, SREBP-1 (1:200, Santa Cruze Biotechnology, Santa Cruz, CA), followed by incubation with HRP-coupled secondary antibody (1:10,000) for 1 h. Immunoreactive bands were visualized by enhanced chemiluminescence and quantified by the Scion Image program (Scion Corporation, Frederick, MD). Experiments were repeated on 3 different passages of cells, each passage containing all conditions in parallel.
Figure 4. CAME and CAEE inhibit C/EBP-β and PPAR-γ protein expression through mechanisms implicating AMPK pathway. Shown are representative blots of 3T3-adipocytes treated with the maximum nontoxic concentration (100 μM) of either CAME or CAEE. […] Data are expressed as C/EBP-β/β-actin (D), PPAR-γ/β-actin (E), phospho-Akt/pan-Akt (F) and phospho-AMPK/pan-AMPK (G). […]

GLUT4 = experiment: Western immunoblot GLUT4 protein content in L6 myotubes; type: cell-based, rat; settings: 50 μM, 18 h, GLUT4/β-actin
Experimental: L6 cells myotubes, H4IIE cells and 3T3-L1 adipocytes were treated with either CAME, CAEE (50 μM each) or vehicle (DMSO) for 18 h. Insulin (100 nM) or aminoimidazole carboxamide ribonucleotide (AICAR; 1 mM) were added to some vehicle-treated wells 30 min prior to the end of the treatment and served as the positives controls. Protein content was assayed by the bicinchoninic acid method (Thermo Scientific Pierce Protein Research, Rockford, IL) standardized to bovine serum albumin. Western immunoblotting was performed as described elsewhere (Eid et al. [2010]). […] Immunoreactive bands were visualized by enhanced chemiluminescence and quantified by the Scion Image program (Scion Corporation, Frederick, MD). […]
Figure 1. […] Cells were treated as previously described, cell surface GLUT4myc was detected by an enzyme-linked colorimetric assay. […] Results represent the means ± SEM of three independent experiments, and 3-4 cells were analyzed for each condition per experiment. *Indicates a significant (p ≤ 0.05) difference, **(p < 0.01) from the vehicle control group as assessed by ANOVA. […] Data are expressed as (D) phospho-AMPK/β-actin, (E) GLUT4/β-actin and (F) GLUT1/β-actin and are given as mean ± SEM from 3 experiments. *p < 0.05 indicates a significant difference, **(p < 0.01) from the vehicle control group.

3T3-L1 adipocytes = experiment: Adipogenesis assay (AdipoRed lipid accumulation); type: cell-based; settings: Mus musculus, 192 h, 3T3-L1, day 8 of differentiation; for IC50: read-out: adipogenesis inhibition IC50
Experimental: Starting from day 0 of differentiation, 3T3-L1 adipocytes were separately treated with different concentrations of either CAME or CAEE (12.5, 25, 50 and 100 μM). Cells treated with vehicle (0.1% DMSO) in proliferation and differentiation media were used as negative controls. The adipogenic compound rosiglitazone (5 μM) was added to some vehicle-treated wells and served as the positive control. At day 8 after initiation of differentiation, intracellular lipid accumulation was quantified as previously described using AdipoRed Reagent according to the manufacturer’s protocol (Martineau et al. [2010]).
Figure 3. (A and B) Anti-adipogenic effect of CAME and CAEE in 3T3-L1 adipocytes. Cells were treated with several concentrations (12.5, 25, 50 and100 μM) of either CAME or CAEE in DMEM containing 10% FBS and the standard adipogenic cocktail (500 μM 3-isobutyl-1-methylxanthine, 500 nM insulin and 10 μM dexamethasone) for 2 days then in DMEM containing 10% FBS and 500 nM insulin starting from days 2-8 of differentiation. This medium was changed every 2 days. (A) On day 8, lipid content was measured by AdipoRed assay. Results represent the means ± SEM of three independent experiments. *Indicates a significant (p ≤ 0.05) difference, **(p < 0.01), ***(p < 0.001) from the vehicle control group. […] Vehicle-treated cells show the presence of lipid droplets. On the other hand, cells treated with the maximum nontoxic concentration (100 μM) of either CAME or CAEE retained the fibroblast-like morphology of pre-adipocytes and were devoid of lipid droplets. (C) CAME and CAEE inhibit pre-adipocyte clonal expansion. Confluent 3T3-L1 pre-adipocytes undergoing clonal expansion in response to differentiation cues were treated with vehicle or 12.5, 25, 50 and 100 μM of either CAME or CAEE for 20 h and incorporation of ^3H-labeled thymidine was measured. Normalized data are presented as mean ± SEM of three independent experiments. **Indicates a significant (p ≤ 0.01) difference, ***(p < 0.001) from the vehicle control group.

For CCOC(=O)/C=C/c1ccc(O)c(O)c1 [CAEE, caffeic acid ethyl ester], the glucose uptake (C2C12 cells) is listed as “potently enhanced glucose uptake”, the “protein level of C/EBP-β” value (C/EBP-β) is listed as “significantly reduced” and the “GLUT4 content, fold compared to DMSO” value (GLUT4) is listed as roughly 3.2 fold. It also gave an IC50 (3T3-L1 adipocytes) of 12.9 µM and an inhibition at 100 µM (3T3-L1 adipocytes) of 97.3 ± 3%.
For COC(=O)/C=C/c1ccc(O)c(O)c1 [CAME, CA methyl ester], the glucose uptake (C2C12 cells) is given as “potently enhanced glucose uptake”, the “protein level of C/EBP-β” value (C/EBP-β) is given as “significantly reduced” and the “GLUT4 content, fold compared to DMSO” value (GLUT4) is given as roughly 2.7 fold. It also gave an IC50 (3T3-L1 adipocytes) of 13.8 µM and an inhibition at 100 µM (3T3-L1 adipocytes) of 83.3 ± 7.2%.
